# Assay results taken from ChEMBL document CHEMBL4196219, “Rare Thioglycosides from the Roots of Wasabia japonica” (J Nat Prod, 2018).
# Tested on: BV-2
# Assay: Antiinflammatory activity in mouse BV2 cells assessed as inhibition of LPS-induced nitric oxide production after 24 hrs by Griess reagent based assay
# Type: functional, cell-based
# Conditions: BV-2, 24 h
structure (smiles),measurement,value
C[C@@H]1CSS[C@@H]2O[C@H](CO)[C@@H](O)[C@H](O)[C@H]2OC1=O,IC50,41.2 µM
